In PubChem BioAssay (NCI):
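These data come from cells grown in 96-well plates and exposed to compound for 48 hours at five concentrations. TGI is the concentration that stops growth completely.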

Experiments:
Assay in all cases: NCI tumour cell line growth inhibition, 48 h
[1] = system: OVCAR-3 ovarian
[2] = system: HT29 colon
[3] = system: SF-295 CNS
[4] = system: T-47D breast
[5] = system: MDA-N
[6] = system: SNB-19 CNS
[7] = system: MALME-3M melanoma
[8] = system: MDA-MB-231 breast
[9] = system: MDA-MB-435
[10] = system: HCC-2998 colon
[11] = system: SN12C renal
[12] = system: UACC-62 melanoma
[13] = system: NCI/ADR-RES ovarian
[14] = system: NCI-H226 lung
[15] = system: COLO 205 colon
[16] = system: NCI-H522 lung
[17] = system: HOP-92 NSCLC
[18] = system: HOP-62 NSCLC
[19] = system: SK-OV-3 ovarian
[20] = system: EKVX NSCLC
[21] = system: RPMI-8226 leukemia
[22] = system: SK-MEL-28 melanoma
[23] = system: HCT-116 colon
[24] = system: UACC-257 melanoma
[25] = system: UO-31 renal
[26] = system: NCI-H23 lung
[27] = system: MOLT-4 leukemia
[28] = system: 786-0 renal
[29] = system: MCF7 breast
[30] = system: HS 578T breast
[31] = system: SR leukemia
[32] = system: LOX IMVI melanoma
[33] = system: IGROV1 ovarian
[34] = system: RXF 393 renal
[35] = system: K-562 leukemia
[36] = system: HL-60(TB) leukemia
[37] = system: SK-MEL-5 melanoma
[38] = system: SW-620 colon
[39] = system: SNB-75 CNS
[40] = system: A549 NSCLC
[41] = system: HCT-15 colon
[42] = system: OVCAR-4 ovarian
[43] = system: SF-268 CNS
[44] = system: OVCAR-5 ovarian
[45] = system: PC-3 prostate
[46] = system: KM12 colon
[47] = system: U251 CNS
[48] = system: SK-MEL-2 melanoma
[49] = system: TK-10 renal
[50] = system: SF-539 CNS
[51] = system: NCI-H460 lung
[52] = system: ACHN renal
[53] = system: DU-145 prostate
[54] = system: M14 melanoma
[55] = system: OVCAR-8 ovarian
[56] = system: BT-549 breast
[57] = system: A498 renal
[58] = system: CCRF-CEM leukemia
[59] = system: CAKI-1 renal

CC(C)CN=C(N)N=C(N)N was tested, and the TGI [1] was > 100 µM, the TGI [2] was > 100 µM and the TGI [3] was > 100 µM. The TGI [4] was > 100 µM, the TGI [5] was > 100 µM and the TGI [6] was > 100 µM. The TGI [7] was > 100 µM, the TGI [8] was > 100 µM and the TGI [9] was > 100 µM. For the same compound, the TGI [10] was > 100 µM, the TGI [11] was > 100 µM and the TGI [12] was > 100 µM. The TGI [13] was > 100 µM, the TGI [14] was > 100 µM and the TGI [15] was > 100 µM. The TGI [16] was > 100 µM, the TGI [17] was > 100 µM and the TGI [18] was > 100 µM. The TGI [19] was > 100 µM, the TGI [20] was > 100 µM and the TGI [21] was > 100 µM. For the same compound, the TGI [22] was > 100 µM, the TGI [23] was > 100 µM and the TGI [24] was > 100 µM. For the same compound, the TGI [25] was > 100 µM, the TGI [26] was > 100 µM and the TGI [27] was > 100 µM. The TGI [28] was > 100 µM, the TGI [29] was > 100 µM and the TGI [30] was > 100 µM. For the same compound, the TGI [31] was > 100 µM, the TGI [32] was > 100 µM and the TGI [33] was > 100 µM. For the same compound, the TGI [34] was > 100 µM, the TGI [35] was > 100 µM and the TGI [36] was > 100 µM. For the same compound, the TGI [37] was > 100 µM, the TGI [38] was > 100 µM and the TGI [39] was > 100 µM. For the same compound, the TGI [40] was > 100 µM, the TGI [41] was > 100 µM and the TGI [42] was > 100 µM. For the same compound, the TGI [43] was > 100 µM, the TGI [44] was > 100 µM and the TGI [45] was > 100 µM. For the same compound, the TGI [46] was > 100 µM, the TGI [47] was > 100 µM and the TGI [48] was > 100 µM. The TGI [49] was > 100 µM, the TGI [50] was > 100 µM and the TGI [51] was > 100 µM. The TGI [52] was > 100 µM, the TGI [53] was > 100 µM and the TGI [54] was > 100 µM. For the same compound, the TGI [55] was > 100 µM and the TGI [56] was > 100 µM.

For CC1(C)OC2C(=O)C=C(COCc3ccccc3)C2O1 (configuration not stated), the TGI [2] was > 100 µM, the TGI [3] was > 100 µM and the TGI [4] was 56.3 µM. For the same compound, the TGI [5] was > 100 µM, the TGI [6] was > 100 µM and the TGI [7] was 45 µM. For the same compound, the TGI [8] was > 100 µM, the TGI [9] was 71.2 µM and the TGI [11] was > 100 µM. For the same compound, the TGI [12] was 28.6 µM, the TGI [13] was > 100 µM and the TGI [14] was 61.5 µM. For the same compound, the TGI [15] was 41 µM, the TGI [16] was 38 µM and the TGI [18] was 79 µM. The TGI [19] was 22 µM, the TGI [20] was > 100 µM and the TGI [21] was > 100 µM. For the same compound, the TGI [22] was 95.4 µM, the TGI [23] was 54.3 µM and the TGI [57] was > 100 µM. The TGI [24] was > 100 µM, the TGI [25] was 50.1 µM and the TGI [26] was 59.4 µM. For the same compound, the TGI [58] was > 100 µM, the TGI [27] was > 100 µM and the TGI [28] was > 100 µM. For the same compound, the TGI [29] was > 100 µM, the TGI [30] was > 100 µM and the TGI [31] was > 100 µM. It also gave a TGI [32] of 53.5 µM, a TGI [33] of 53.5 µM and a TGI [34] of 45.8 µM. For the same compound, the TGI [35] was > 100 µM, the TGI [36] was 77.1 µM and the TGI [37] was 25.8 µM. The TGI [59] was > 100 µM, the TGI [38] was 52.2 µM and the TGI [40] was > 100 µM. For the same compound, the TGI [41] was > 100 µM, the TGI [43] was > 100 µM and the TGI [44] was 84.6 µM. For the same compound, the TGI [45] was > 100 µM, the TGI [46] was 51.1 µM and the TGI [47] was 90 µM. The TGI [48] was > 100 µM, the TGI [49] was > 100 µM and the TGI [50] was 60.3 µM. The TGI [52] was > 100 µM, the TGI [53] was > 100 µM and the TGI [54] was 92.9 µM. The TGI [55] was > 100 µM and the TGI [56] was 39.8 µM.

With Nc1nc(Cl)c(N)c(NCC2(CO)CC(CCCc3ccccc3)C2)n1 (configuration not stated) the TGI [1] was > 67.2 µM, the TGI [2] was > 22.8 µM and the TGI [3] was > 59.5 µM. The TGI [4] was > 100 µM, the TGI [5] was > 100 µM and the TGI [6] was > 100 µM. For the same compound, the TGI [7] was 9.92 µM, the TGI [8] was 99.7 µM and the TGI [9] was > 100 µM. For the same compound, the TGI [10] was > 100 µM, the TGI [11] was > 100 µM and the TGI [12] was > 100 µM. For the same compound, the TGI [13] was 63.1 µM, the TGI [14] was > 63.7 µM and the TGI [15] was 45.6 µM. For the same compound, the TGI [16] was 19.6 µM, the TGI [17] was > 100 µM and the TGI [18] was > 100 µM. For the same compound, the TGI [19] was > 100 µM, the TGI [20] was 10.1 µM and the TGI [21] was > 50.1 µM. The TGI [22] was > 100 µM, the TGI [23] was > 100 µM and the TGI [57] was 66.1 µM. For the same compound, the TGI [24] was > 100 µM, the TGI [25] was > 100 µM and the TGI [26] was > 84.4 µM. For the same compound, the TGI [58] was 7.16 µM, the TGI [27] was > 100 µM and the TGI [28] was > 51.7 µM. For the same compound, the TGI [29] was > 85.7 µM, the TGI [30] was > 100 µM and the TGI [31] was > 100 µM. The TGI [32] was 98.7 µM, the TGI [33] was > 73.9 µM and the TGI [35] was > 100 µM. The TGI [36] was 32.2 µM, the TGI [37] was 15.4 µM and the TGI [59] was > 100 µM. For the same compound, the TGI [38] was > 100 µM, the TGI [39] was 67.7 µM and the TGI [40] was > 100 µM. The TGI [41] was > 100 µM, the TGI [42] was > 100 µM and the TGI [43] was > 55.3 µM. For the same compound, the TGI [44] was > 100 µM, the TGI [45] was > 91.5 µM and the TGI [46] was > 100 µM. For the same compound, the TGI [47] was > 100 µM, the TGI [48] was 30.6 µM and the TGI [49] was > 100 µM. The TGI [50] was > 64.2 µM, the TGI [51] was > 100 µM and the TGI [52] was 99.7 µM. For the same compound, the TGI [53] was > 100 µM, the TGI [54] was > 53.4 µM and the TGI [55] was > 100 µM. The TGI [56] was > 81.8 µM.
